From patent US12065443B2, “Compounds and pharmaceutical compositions thereof for the treatment of diseases” (priority 2017, dated 2024)
Read-outs that look alike come from different tables or passages of the source.

How the values were obtained:
[1] = system: LPS-induced TNFα secretion in monocyte-derived macrophages (MdM); test: MdM assay: LPS-triggered TNFα (ELISA); format: cell-based, human; conditions: Homo sapiens, Macrophage, LPS-triggered TNFα inhibition
In short: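 TNFα ELISA read on supernatants harvested 20 h after LPS (final 200 ng/mL) stimulation. Cells were day-10 macrophages derived from human blood CD14+ monocytes, exposed to 3-fold compound dilutions for 1 h at 37 °C beforehand, with DMSO held at 0.2%.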

[2] = target: T1, SIK3 (Homo sapiens, UniProt Q9Y2K2); test: biochemical
T1 construct: purchased SignalChem S12-11G-100
In short: (§1)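 Radiometric assay: SIK1, SIK2 or SIK3 phosphorylates AMARA peptide using unlabelled plus [^33P]-γ-ATP, reaction started by ATP addition. Stopped with 150 mM phosphoric acid, filter-harvested and washed; incorporated ^33P counted by scintillation. Controls: 1% DMSO and 10 μM staurosporine final.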

[3] = target: T2, SIK1 (Homo sapiens, UniProt P57059); test: biochemical; conditions: 33P radioactive SIK kinase assay, AMARA peptide, 10 μM ATP; read-out: SIK1 IC50
T2 construct: purchased Carna Biosciences 02-131
In short: as §1

[4] = target: T3, SIK2 (Homo sapiens, UniProt Q9H0K1); test: biochemical; conditions: 33P radioactive SIK kinase assay, AMARA peptide, 10 μM ATP
T3 construct: purchased ThermoFisher Scientific PV4792
In short: as §1

[5] = system: LPS driven TNFα secretion in Peripheral Blood Mononuclear Cells (PBMC); test: cells; format: cell-based; conditions: Homo sapiens, LPS 1 ng/mL, supernatant after 18-20 h, ELISA
Method: This assay measures the inhibition of LPS driven TNFα secretion by a test compound in Peripheral Blood Mononuclear Cells (PBMC), which in turn correlates with SIK inhibition.
PBMCs are isolated from human blood samples (buffy coats). The buffy coat is aseptically transferred into a 50 mL Falcon™ tube, and diluted 1/2 in Phosphate Buffered Saline (PBS). […] The tubes are centrifuged for 35 min at 400× g in temperature controlled centrifuge, without brake, at 25° C. PBMCs are aspirated from the white interface layer between sample and Lymphoprep. PBMCs are washed five times in PBS. […] The PBMCs are finally seeded at 400,000 PBMC/160 μL/96-well.
A compound dilution plate is made in 100% DMSO by 3-fold dilution of 10 mM stock solution of test compound. An intermediate dilution plate (10× final concentration) is made by diluting the compound dilution plate 50-fold in RPMI medium.
20 μL of the 10× final concentration compound is added to the cells and incubated for 1 hour at 37° C. before addition of trigger. No trigger conditions/trigger conditions are spiked with equal final DMSO concentrations of 0.2% DMSO. 20 μL of 10×LPS (final concentration 1 ng/mL) solution are added to all wells except for the ‘no trigger wells’ where 20 μL medium is added. Supernatant is collected after 18-20 h for IL-10 and TNFα determination using ELISA.
The plate is then washed once with PBST (PBS+0.05% Tween20) and once with PBS followed by the addition of 100 μL of blocking buffer (1% Bovine Serum Albumin (BSA)-5% Sucrose) and plates are sealed and incubated for at least 4 h at RT. After washing the plate once with PBST and once with PBS, 40 μL of standard or sample are added (TNFα standard curve is prepared using a 1/2 serial dilution starting from 16000 pg/mL; dilutions are made in dilution buffer (PBS+1% BSA)). Plates are washed twice with PBST, and once with PBS, after which 35 μL of the detection antibody is added (final concentration 0.25 μg/mL diluted in dilution buffer) and plates are incubated for at least 2 h at RT. Plates are washed twice with PBST, and once with PBS, where after 35 μL of Strep-HRP conjugate (0.5 μg/mL final concentration diluted in dilution buffer) is added. Plates are incubated in the dark, at RT for at least 45 min but no longer than 1 hour. Plates are washed twice with PBST, and once with PBS. Thereafter, 50 μL of luminol substrate is added to each well (prepared according to manufacturer's instructions), and incubated for 5 min at RT protected from light.
To measure the inhibition of LPS induced TNFα, percentage inhibition (PIN) values are calculated for all concentrations tested, compared to controls.
PIN values are plotted in concentration-response and EC50 values are derived using GraphPad Prism Software, applying 4-parameter nonlinear regression (sigmoidal) curve fitting.

[6] = target: T1, SIK3; test: biochemical; conditions: ADP-Glo SIK kinase assay
In short: (§2)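 ADP-Glo luminescent assay of ADP formed by SIK2 or SIK3 with substrate after ATP addition, 120 min at RT. Remaining ATP depleted 40 min, then ADP converted to ATP and read by luciferase luminescence after 30 min. Controls: 1% DMSO and 10 μM staurosporine (final).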

[7] = target: T2, SIK1; test: biochemical; conditions: ADP-Glo SIK kinase assay
In short: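 Enzyme–substrate mix was started with ATP and incubated 120 min at RT. ADP formed was quantified by ADP-Glo: 40 min ATP depletion, then 30 min detection reagent converting ADP to ATP for luciferase luminescence, which rises with kinase activity. Controls: 1% DMSO and 10 μM staurosporine (final).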

[8] = target: T3, SIK2; test: biochemical; conditions: ADP-Glo SIK kinase assay
In short: as §2

[9] = system: LPS triggered IL-10 secretion in monocyte-derived macrophages (MdM); test: MdM assay: LPS-triggered IL-10 (ELISA); format: cell-based, human; conditions: maximal fold change vs LPS only, median across assays
In short: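 Readout is IL-10FCmax, the median across at least two runs of the highest fold change over LPS-only, from ELISA absorbance at 450 nm of 2 h supernatants. Macrophages came from day-10 cultures of human CD14+ monocytes, were given compound for 1 h at 37° C in 0.2% DMSO, then 200 ng/mL LPS.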

T2 sequence (P57059 whole entry): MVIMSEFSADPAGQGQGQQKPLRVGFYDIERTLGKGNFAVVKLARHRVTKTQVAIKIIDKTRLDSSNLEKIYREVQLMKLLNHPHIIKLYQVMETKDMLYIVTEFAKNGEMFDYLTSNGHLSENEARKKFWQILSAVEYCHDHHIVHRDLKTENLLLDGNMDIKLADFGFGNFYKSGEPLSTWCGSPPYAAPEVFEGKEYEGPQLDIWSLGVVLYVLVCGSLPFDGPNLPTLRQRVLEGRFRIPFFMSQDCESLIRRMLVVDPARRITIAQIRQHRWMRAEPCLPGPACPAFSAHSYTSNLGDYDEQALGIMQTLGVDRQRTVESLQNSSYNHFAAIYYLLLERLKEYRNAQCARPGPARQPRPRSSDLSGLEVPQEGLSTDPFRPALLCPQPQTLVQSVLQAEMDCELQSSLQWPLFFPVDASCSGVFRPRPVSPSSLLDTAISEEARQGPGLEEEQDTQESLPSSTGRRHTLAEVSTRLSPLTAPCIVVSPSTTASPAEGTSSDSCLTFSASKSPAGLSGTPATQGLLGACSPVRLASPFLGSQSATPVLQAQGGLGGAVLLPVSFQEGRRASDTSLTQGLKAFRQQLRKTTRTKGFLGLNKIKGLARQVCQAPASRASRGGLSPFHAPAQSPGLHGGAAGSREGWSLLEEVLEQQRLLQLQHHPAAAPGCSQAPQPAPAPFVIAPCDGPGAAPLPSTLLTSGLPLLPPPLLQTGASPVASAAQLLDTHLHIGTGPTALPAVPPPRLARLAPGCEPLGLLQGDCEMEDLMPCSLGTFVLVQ
T1 sequence (Q9Y2K2 whole entry): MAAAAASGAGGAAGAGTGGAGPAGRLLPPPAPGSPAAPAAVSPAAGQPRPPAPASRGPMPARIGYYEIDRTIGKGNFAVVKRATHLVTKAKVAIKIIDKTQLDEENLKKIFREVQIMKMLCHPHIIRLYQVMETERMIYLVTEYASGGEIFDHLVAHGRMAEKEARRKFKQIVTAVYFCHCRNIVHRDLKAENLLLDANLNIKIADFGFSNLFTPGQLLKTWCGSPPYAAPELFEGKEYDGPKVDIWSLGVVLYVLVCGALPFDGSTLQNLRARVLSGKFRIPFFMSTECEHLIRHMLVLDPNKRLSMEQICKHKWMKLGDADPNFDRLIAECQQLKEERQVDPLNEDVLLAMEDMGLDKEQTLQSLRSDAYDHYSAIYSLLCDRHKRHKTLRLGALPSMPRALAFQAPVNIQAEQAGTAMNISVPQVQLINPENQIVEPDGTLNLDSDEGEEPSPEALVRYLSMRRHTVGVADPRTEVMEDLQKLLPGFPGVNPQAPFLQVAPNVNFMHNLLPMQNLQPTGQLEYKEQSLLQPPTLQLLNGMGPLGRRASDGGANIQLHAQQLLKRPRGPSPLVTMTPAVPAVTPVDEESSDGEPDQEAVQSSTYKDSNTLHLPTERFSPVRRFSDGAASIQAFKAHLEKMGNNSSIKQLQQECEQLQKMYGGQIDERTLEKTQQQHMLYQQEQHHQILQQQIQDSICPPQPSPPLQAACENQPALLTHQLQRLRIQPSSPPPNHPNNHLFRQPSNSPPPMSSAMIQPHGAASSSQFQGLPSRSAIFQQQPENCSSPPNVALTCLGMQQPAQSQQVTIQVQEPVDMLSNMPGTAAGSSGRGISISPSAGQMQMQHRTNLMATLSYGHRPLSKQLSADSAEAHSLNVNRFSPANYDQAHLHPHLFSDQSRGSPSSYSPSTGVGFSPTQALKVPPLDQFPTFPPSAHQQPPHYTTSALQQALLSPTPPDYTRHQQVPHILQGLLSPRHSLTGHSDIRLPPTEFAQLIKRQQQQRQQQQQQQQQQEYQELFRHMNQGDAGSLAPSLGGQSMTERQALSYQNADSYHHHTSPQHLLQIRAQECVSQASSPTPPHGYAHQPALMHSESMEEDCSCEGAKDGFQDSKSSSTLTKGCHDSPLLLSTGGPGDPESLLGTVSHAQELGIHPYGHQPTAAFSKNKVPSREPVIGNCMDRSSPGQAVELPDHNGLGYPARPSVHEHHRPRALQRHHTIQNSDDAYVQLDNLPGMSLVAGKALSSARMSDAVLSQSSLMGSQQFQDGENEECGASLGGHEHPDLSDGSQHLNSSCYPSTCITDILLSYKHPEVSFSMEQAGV
T3 sequence (Q9H0K1 whole entry): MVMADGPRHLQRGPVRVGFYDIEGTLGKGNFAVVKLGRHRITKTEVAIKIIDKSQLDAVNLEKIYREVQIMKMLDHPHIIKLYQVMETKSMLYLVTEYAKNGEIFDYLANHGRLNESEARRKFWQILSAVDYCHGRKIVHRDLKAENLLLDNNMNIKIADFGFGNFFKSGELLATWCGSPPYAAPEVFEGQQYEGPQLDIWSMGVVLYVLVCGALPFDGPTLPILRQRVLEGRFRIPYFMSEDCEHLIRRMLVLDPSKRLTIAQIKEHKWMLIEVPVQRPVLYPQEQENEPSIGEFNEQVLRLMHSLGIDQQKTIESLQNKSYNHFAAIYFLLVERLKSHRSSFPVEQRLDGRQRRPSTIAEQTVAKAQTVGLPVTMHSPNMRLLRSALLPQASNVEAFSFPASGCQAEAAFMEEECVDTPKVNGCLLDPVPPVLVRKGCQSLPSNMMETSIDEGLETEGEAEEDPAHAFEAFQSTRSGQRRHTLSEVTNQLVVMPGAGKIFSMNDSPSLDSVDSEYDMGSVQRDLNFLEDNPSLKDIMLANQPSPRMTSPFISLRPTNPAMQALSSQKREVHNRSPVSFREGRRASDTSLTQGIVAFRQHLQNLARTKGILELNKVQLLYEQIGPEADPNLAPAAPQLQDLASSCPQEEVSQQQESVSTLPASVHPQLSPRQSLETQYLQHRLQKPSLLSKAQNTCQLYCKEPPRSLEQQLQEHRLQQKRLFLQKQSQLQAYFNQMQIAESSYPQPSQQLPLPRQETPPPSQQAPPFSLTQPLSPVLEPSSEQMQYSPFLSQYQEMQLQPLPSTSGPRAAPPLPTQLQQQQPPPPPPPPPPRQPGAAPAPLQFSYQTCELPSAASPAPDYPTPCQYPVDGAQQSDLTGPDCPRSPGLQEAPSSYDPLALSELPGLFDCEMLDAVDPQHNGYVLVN

SMILES | EC50 [1] | IC50 [2] | IC50 [3] | IC50 [4] | EC50 [5] | IC50 [6] | IC50 [7] | IC50 [8] | IL-10 FCmax median [9]
COc1cc(-c2cnn3cc(-c4cnn(C)c4)ccc23)cc(OC)c1C(=O)NCC(F)(F)F [compound 99, 2,6-dimethoxy-4-[6-(1-methylpyrazol-4-yl)pyrazolo[1,5-a]pyridin-3-yl]-N-(2,2,2-trifluorocthyl)benzamide] | 0.1 to 100 nM | 0.01 to 10 nM | 0.01 to 10 nM | 0.01 to 10 nM | 0.1 to 100 nM | – | – | – | –
COc1cc(-n2cnc3cc(-c4cnn(C(F)F)c4)ccc32)cc(OC)c1C(=O)NCC(F)(F)F [compound 97, 4-[5-[1-(difluoromethyl)pyrazol-4-yl]benzimidazol-1-yl]-2,6-dimethoxy-N-(2,2,2-trifluoroethyl)benzamide] | 0.1 to 100 nM | 0.01 to 10 nM | 10 to 100 nM | 0.01 to 10 nM | 0.1 to 100 nM | – | – | – | –
COc1cc(-c2cnc3cc(-c4cnn(C)c4)ccn23)cc(OC)c1C(=O)NCC(F)F [compound 133, N-(2,2-difluoroethyl)-2,6-dimethoxy-4-[7-(1-methylpyrazol-4-yl)imidazo[1,2-a]pyridin-3-yl]benzamide] | 0.1 to 100 nM | 0.01 to 10 nM | 0.01 to 10 nM | 0.01 to 10 nM | – | 0.01 to 10 nM | 0.01 to 10 nM | 0.01 to 10 nM | ++ (>1.5-4.5)
COc1cc(-c2cnc3cc(-c4cnn(C5CN(CCC#N)C5)c4)ccn23)cc(OC)c1C(=O)NCC(F)(F)F [Cpd 264, 4-[7-[1-[1-(2-cyanoethyl)azetidin-3-yl]pyrazol-4-yl]imidazo[1,2-a]pyridin-3-yl]-2,6-dimethoxy-N-(2,2,2-trifluoroethyl)benzamide] | 0.1 to 100 nM | – | – | – | – | 0.01 to 10 nM | 0.01 to 10 nM | 0.01 to 10 nM | ++ (>1.5-4.5)
COc1cc(-c2cnc3cc(-c4cnn(C)c4)ccn23)cc(OCCO)c1C(=O)NC1CC1 [compound 279, N-cyclopropyl-2-(2-hydroxyethoxy)-6-methoxy-4-[7-(1-methylpyrazol-4-yl)imidazo[1,2-a]pyridin-3-yl]benzamide] | 100 to 1000 nM | – | – | – | – | 0.01 to 10 nM | 0.01 to 10 nM | 0.01 to 10 nM | ++ (>1.5-4.5)
COc1cc(-c2cnc3cc(-c4cnn(C)c4)ccn23)cc2c1C(=O)N(CC(F)(F)F)CC2 [Cpd 225, 8-methoxy-6-[7-(1-methylpyrazol-4-yl)imidazo[1,2-a]pyridin-3-yl]-2-(2,2,2-trifluoroethyl)-3,4-dihydroisoquinolin-1-one] | 0.1 to 100 nM | 0.01 to 10 nM | 10 to 100 nM | 0.01 to 10 nM | – | 0.01 to 10 nM | 0.01 to 10 nM | 0.01 to 10 nM | ++ (>1.5-4.5)
COc1cc(-c2cnc3cc(-c4cn(C)cn4)ccn23)cc(OC)c1C(=O)N[C@H](C)C(F)(F)F [compound 215, 2,6-dimethoxy-4-[7-(1-methylimidazol-4-yl)imidazo[1,2-a]pyridin-3-yl]-N-[(1R)-2,2,2-trifluoro-1-methyl-ethyl]benzamide] | 100 to 1000 nM | 0.01 to 10 nM | 10 to 100 nM | 0.01 to 10 nM | – | 0.01 to 10 nM | 10 to 100 nM | 0.01 to 10 nM | ++ (>1.5-4.5)
COc1cc(-c2cnc3cc(-c4cnnc(C)c4)ccn23)cc(OC(F)F)c1C(=O)NC1CC1 [compound 272, N-cyclopropyl-2-(difluoromethoxy)-6-methoxy-4-[7-(6-methylpyridazin-4-yl)imidazo[1,2-a]pyridin-3-yl]benzamide] | 100 to 1000 nM | – | – | – | – | 0.01 to 10 nM | 10 to 100 nM | 0.01 to 10 nM | ++ (>1.5-4.5)
COc1cc(-c2cnc3cc(-c4cnn(C5CN(CC#N)C5)c4)ccn23)cc(OC)c1C(=O)NCC(F)(F)F [compound 265, 4-[7-[1-[1-(cyanomethyl)azetidin-3-yl]pyrazol-4-yl]imidazo[1,2-a]pyridin-3-yl]-2,6-dimethoxy-N-(2,2,2-trifluoroethyl)benzamide] | 0.1 to 100 nM | – | – | – | – | 0.01 to 10 nM | 0.01 to 10 nM | 0.01 to 10 nM | ++ (>1.5-4.5)
CCOC(=O)C(C)Cn1cc(-c2ccn3c(-c4cc(OC)c(C(=O)NCC(F)(F)F)c(OC)c4)cnc3c2)cn1 (centres unmarked) [Cpd 293, ethyl 3-[4-[3-[3,5-dimethoxy-4-(2,2,2-trifluoroethyl-carbamoyl)phenyl]imidazo[1,2-a]pyridin-7-yl]pyrazol-1-yl]-2-methyl-propanoate] | 0.1 to 100 nM | – | – | – | – | 0.01 to 10 nM | 0.01 to 10 nM | 0.01 to 10 nM | ++ (>1.5-4.5)
COc1cc(-c2cnc3cc(-c4ccc(C)nn4)ccn23)cc2c1C(=O)N(CC(F)(F)F)CC2 [Cpd 275, 8-methoxy-6-[7-(6-methylpyridazin-3-yl)imidazo[1,2-a]pyridin-3-yl]-2-(2,2,2-trifluoroethyl)-3,4-dihydroisoquinolin-1-one] | 0.1 to 100 nM | – | – | – | – | 0.01 to 10 nM | 10 to 100 nM | 0.01 to 10 nM | ++ (>1.5-4.5)
CCOC(=O)Cn1cc(-c2ccn3c(-c4cc(OC)c(C(=O)NCC(F)(F)F)c(OC)c4)cnc3c2)cn1 [compound 230, ethyl 2-[4-[3-[3,5-dimethoxy-4-(2,2,2-trifluoroethyl-carbamoyl)phenyl]imidazo[1,2-a]pyridin-7-yl]pyrazol-1-yl]acetate] | 0.1 to 100 nM | 0.01 to 10 nM | 0.01 to 10 nM | 0.01 to 10 nM | – | 0.01 to 10 nM | 0.01 to 10 nM | 0.01 to 10 nM | +++ (>4.5)
CCOC(=O)C(C)n1cc(-c2ccn3c(-c4cc(OC)c(C(=O)NCC(F)(F)F)c(OC)c4)cnc3c2)cn1 (centres unmarked) [compound 263, ethyl 2-[4-[3-[3,5-dimethoxy-4-(2,2,2-trifluoroethyl-carbamoyl)phenyl]imidazo[1,2-a]pyridin-7-yl]pyrazol-1-yl]propanoate] | 0.1 to 100 nM | 0.01 to 10 nM | 0.01 to 10 nM | 0.01 to 10 nM | – | 0.01 to 10 nM | 0.01 to 10 nM | 0.01 to 10 nM | ++ (>1.5-4.5)
COc1cc(-n2cnc3cc(-c4cnn(C)c4)ccc32)cc(OC)c1C(=O)N1CC(F)(F)C1 [compound 142, (3,3-difluoroazetidin-1-yl)-[2,6-dimethoxy-4-[5-(1-methylpyrazol-4-yl)benzimidazol-1-yl]phenyl]methanone] | 100 to 1000 nM | 10 to 100 nM | 10 to 100 nM | 10 to 100 nM | – | 10 to 100 nM | 10 to 100 nM | 10 to 100 nM | ++ (>1.5-4.5)
COc1ccc(-c2ccn3c(-c4cc(OC)c(C(=O)NC5CC5)c(OC(F)F)c4)cnc3c2)nn1 [compound 280, N-cyclopropyl-2-(difluoromethoxy)-6-methoxy-4-[7-(6-methoxypyridazin-3-yl)imidazo[1,2-a]pyridin-3-yl]benzamide] | 0.1 to 100 nM | – | – | – | – | 0.01 to 10 nM | 0.01 to 10 nM | 0.01 to 10 nM | ++ (>1.5-4.5)
CNc1cc(-c2cnc3cc(-c4cnn(C)c4)ccn23)cc(OC)c1C(=O)NCC(F)(F)F [Cpd 204] | 0.1 to 100 nM | 0.01 to 10 nM | 0.01 to 10 nM | 0.01 to 10 nM | – | 0.01 to 10 nM | 0.01 to 10 nM | 0.01 to 10 nM | ++ (>1.5-4.5)
COc1cc(-c2cnc3cc(-c4cn[nH]c4)ccn23)cc(OC)c1C(=O)NCC(F)(F)F [compound 227, 2,6-dimethoxy-4-[7-(1H-pyrazol-4-yl)imidazo[1,2-a]pyridin-3-yl]-N-(2,2,2-trifluoroethyl)benzamide] | 0.1 to 100 nM | 0.01 to 10 nM | 0.01 to 10 nM | 0.01 to 10 nM | – | 0.01 to 10 nM | 0.01 to 10 nM | 0.01 to 10 nM | +++ (>4.5)
COc1cc(-c2cnc3cc(-c4cnnc(C)c4)ccn23)cc(OC)c1C(=O)NCC(F)(F)F [compound 252, 2,6-dimethoxy-4-[7-(6-methylpyridazin-4-yl)imidazo[1,2-a]pyridin-3-yl]-N-(2,2,2-trifluoroethyl)benzamide] | 100 to 1000 nM | 0.01 to 10 nM | 100 to 500 nM | 10 to 100 nM | – | 0.01 to 10 nM | 100 to 500 nM | 10 to 100 nM | –
